Patent US11780823B2, “Indazole-3-carboxamides and their use as Wnt/β-catenin signaling pathway inhibitors” (BioSplice Therapeutics, Inc., priority 2011, dated 2023)

Tested on: Wnt activity (wnt-responsive SP5 promoter luciferase reporter in SW480 cells)
Assay: Wnt reporter screening assay: SP5 promoter-driven firefly luciferase in SW480 cells
Format: cell-based
Settings: Homo sapiens; SW480 colon cancer cells with SP5 promoter luciferase reporter; half-log dilutions, ten micromolar top concentration; read 24-40 h after compound addition; normalized to DMSO; read-out: Wnt inhibition
In short: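 Described as a possible protocol: SW480 cells (APC-mutant colon cancer) stably carrying an SP5 promoter (eight TCF/LEF sites) firefly luciferase reporter, ~10,000 per well. BrightGlo luminescence normalized to DMSO wells for IC50.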

| SMILES | IC50 [nM] |
| --- | --- |
| O=C(Nc1ccc(N2CCC(O)CC2)nc1)c1n[nH]c2ccc(-c3cncc(CN4CCCCC4)c3)cc12 [Compound 169, N-(6-(4-Hydroxypiperidin-1-yl)pyridin-3-yl)-5-(5-(piperidin-1-ylmethyl)pyridin-3-yl)-1H-indazole-3-carboxamide] | 49 |
| O=C(Nc1ccc(N2CCCC2)nc1)c1n[nH]c2ccc(-c3cncc(CN4CCC(O)CC4)c3)cc12 [Compound 170, 5-(5-((4-Hydroxypiperidin-1-yl)methyl)pyridin-3-yl)-N-(6-(pyrrolidin-1-yl)pyridin-3-yl)-1H-indazole-3-carboxamide] | 43 |
| Cc1cc(NC(=O)c2n[nH]c3ccc(-c4cncc(CN5CCCCC5)c4)cc23)cnc1N1CCCC1 [Compound 172, N-(5-Methyl-6-(pyrrolidin-1-yl)pyridin-3-yl)-5-(5-(piperidin-1-ylmethyl)pyridin-3-yl)-1H-indazole-3-carboxamide] | 60 |
| Cc1cc(NC(=O)c2n[nH]c3ccc(-c4cncc(CN5CCCCC5)c4)cc23)cnc1N1CCC1 [Compound 173, N-(6-(Azetidin-1-yl)-5-methylpyridin-3-yl)-5-(5-(piperidin-1-ylmethyl)pyridin-3-yl)-1H-indazole-3-carboxamide] | 36 |
| O=C(Nc1ccc(N2CCC2)nc1)c1n[nH]c2ccc(-c3cncc(CN4CCCCC4)c3)cc12 [Compound 174, N-(6-(Azetidin-1-yl)pyridin-3-yl)-5-(5-(piperidin-1-ylmethyl)pyridin-3-yl)-1H-indazole-3-carboxamide] | 48 |
| COc1ccc(NC(=O)c2n[nH]c3ccc(-c4cncc(CN5CCCCC5)c4)cc23)cn1 [Compound 175, N-(6-Methoxypyridin-3-yl)-5-(5-(piperidin-1-ylmethyl)pyridin-3-yl)-1H-indazole-3-carboxamide] | 25 |
| Nc1ncc(NC(=O)c2n[nH]c3ccc(-c4cncc(CN5CCCCC5)c4)cc23)cn1 [Compound 176, N-(2-Aminopyrimidin-5-yl)-5-(5-(piperidin-1-ylmethyl)pyridin-3-yl)-1H-indazole-3-carboxamide] | 30 |
| O=C(Nc1ccc(N2CCNCC2)nc1)c1n[nH]c2ccc(-c3cncc(CN4CCCCC4)c3)cc12 [Compound 177, N-(6-(Piperazin-1-yl)pyridin-3-yl)-5-(5-(piperidin-1-ylmethyl)pyridin-3-yl)-1H-indazole-3-carboxamide] | 183 |
| O=C(Nc1ccc(O)nc1)c1n[nH]c2ccc(-c3cncc(CN4CCCCC4)c3)cc12 [Compound 178, N-(6-Hydroxypyridin-3-yl)-5-(5-(piperidin-1-ylmethyl)pyridin-3-yl)-1H-indazole-3-carboxamide] | 297 |
| O=C(Nc1ccc(C(=O)N2CCCC2)nc1)c1n[nH]c2ccc(-c3cncc(CN4CCCCC4)c3)cc12 [Compound 179, 5-(5-(Piperidin-1-ylmethyl)pyridin-3-yl)-N-(6-(pyrrolidine-1-carbonyl)pyridin-3-yl)-1H-indazole-3-carboxamide] | 30 |
| NC(=O)c1ccc(NC(=O)c2n[nH]c3ccc(-c4cncc(CN5CCCCC5)c4)cc23)cn1 [Compound 180, N-(6-carbamoylpyridin-3-yl)-5-(5-(piperidin-1-ylmethyl)pyridin-3-yl)-1H-indazole-3-carboxamide] | 13 |
| O=C(NC1CCCC1)c1ccc(NC(=O)c2n[nH]c3ccc(-c4cccnc4)cc23)cn1 [Compound 181, N-(6-(Cyclopentylcarbamoyl)pyridin-3-yl)-5-(pyridin-3-yl)-1H-indazole-3-carboxamide] | 38 |
| Nc1cncc(-c2ccc3[nH]nc(C(=O)Nc4ccc(N5CCCCC5)nc4)c3c2)c1 [Compound 182, 5-(5-Aminopyridin-3-yl)-N-(6-(piperidin-1-yl)pyridin-3-yl)-1H-indazole-3-carboxamide] | 35 |
| O=C(Nc1ccc(N2CCCC2)nc1)c1n[nH]c2ccc(-c3cncc(CN4CCC(F)(F)C4)c3)cc12 [Compound 183, 5-(5-((3,3-Difluoropyrrolidin-1-yl)methyl)pyridin-3-yl)-N-(6-(pyrrolidin-1-yl)pyridin-3-yl)-1H-indazole-3-carboxamide] | 49 |
| O=C(NC1CCCC1)c1ccc(NC(=O)c2n[nH]c3ccc(-c4cncc(CN5CCCCC5)c4)cc23)cn1 [Compound 184, N-(6-(Cyclopentylcarbamoyl)pyridin-3-yl)-5-(5-(piperidin-1-ylmethyl)pyridin-3-yl)-1H-indazole-3-carboxamide] | 40 |
| CS(=O)(=O)c1ccc(NC(=O)c2n[nH]c3ccc(-c4cncc(CN5CCCCC5)c4)cc23)cn1 [Compound 185, N-(6-(Methylsulfonyl)pyridin-3-yl)-5-(5-(piperidin-1-ylmethyl)pyridin-3-yl)-1H-indazole-3-carboxamide] | 27 |
| CN1CCN(c2cncc(-c3ccc4[nH]nc(C(=O)Nc5ccc(N6CCCC6)nc5)c4c3)c2)CC1 [Compound 186, 5-(5-(4-Methylpiperazin-1-yl)pyridin-3-yl)-N-(6-(pyrrolidin-1-yl)pyridin-3-yl)-1H-indazole-3-carboxamide] | 460 |
| O=C(Nc1ccc(N2CCCC2)nc1)c1n[nH]c2ccc(-c3cncc(N4CCOCC4)c3)cc12 [Compound 187, 5-(5-Morpholinopyridin-3-yl)-N-(6-(pyrrolidin-1-yl)pyridin-3-yl)-1H-indazole-3-carboxamide] | 215 |
| O=C(Nc1cccnc1)c1n[nH]c2ccc(-c3cncc(CN4CCC(F)(F)C4)c3)cc12 [Compound 188, 5-(5-((3,3-Difluoropyrrolidin-1-yl)methyl)pyridin-3-yl)-N-(pyridin-3-yl)-1H-indazole-3-carboxamide] | 9 |
| O=C(Nc1cccnc1)c1n[nH]c2ccc(-c3cncc(N4CCCC4)c3)cc12 [Compound 189, N-(Pyridin-3-yl)-5-(5-(pyrrolidin-1-yl)pyridin-3-yl)-1H-indazole-3-carboxamide] | 85 |
| CN(C)Cc1cncc(-c2ccc3[nH]nc(C(=O)Nc4ccc(N5CCCC5)nc4)c3c2)c1 [Compound 190, 5-(5-((Dimethylamino)methyl)pyridin-3-yl)-N-(6-(pyrrolidin-1-yl)pyridin-3-yl)-1H-indazole-3-carboxamide] | 1200 |
